Data: patent US20230391841A1, “MACROCYCLIC PEPTIDES” (Herantis Pharma OYJ, priority 2019, published 2023)
Bridge positions count the residues as written; N and C are the ends. Peptide text beside a SMILES is read from it.

How the values were obtained:
[1] = In vitro metabolic stability in rat plasma; type: in vitro ADME; settings: 1 μM, 37° C., up to 120 min
Description: The linear and macrocyclic compounds 1-14 and 23-26 (SEQ ID NOs: 1-14 and 23-26) were incubated in concentration 1 μM with rat plasma (Sprague-Dawley, male; 400 μl) for different time points (0, 20, 40, 60 or 120 min) at 37° C. The incubation was terminated by acetonitrile. The collected samples were centrifuged for 20 min at 2272×g and analyzed. io Stock solutions were prepared using 50% DMSO, and the compounds were spiked 1/100 to incubation to have final DMSO content of 0.5%. The samples were analyzed by UHPLC/PDA with high resolution mass spectrometry (QE-Orbitrap-MS on DDI mode) to monitor disappearance of the compound. Enalapril 1 μM was used as a disappearance rate control. For analysis of compounds 9, 10, 13 and 14 stock solutions were prepared with PBS, and samples were analyzed by UHPLC-ToF mass spectrometry. The analytical method was optimized by using the parent compounds for optimum chromatographic properties (peak shape and retention) and mass spectrometric ionization. The ion chromatograms were extracted from the total ion chromatograms using calculated monoisotopic accurate masses with 5 mDa window. Disappearance was based on LC/MS peak areas, marking 0 min as 100%.
The first-order rate constants k (min-1) of the metabolism were obtained from the slope of time versus logarithm (% of remaining compound) plot using Excel software. The in vitro half-life (t1/2) of study compound is defined as: t1/2=In2/k. Calculated half-life is based on compound disappearance from rat plasma.

[2] = test system: rat hepatocytes; experiment: In vitro metabolic stability in rat hepatocytes; type: in vitro ADME; settings: 1 μM, 37° C., up to 60 min
Description: The linear or macrocyclic compounds 1-14 and 23-26 (SEQ ID NOs: […]) were incubated in concentration 1 μM with pooled cryopreserved rat hepatocytes (Sprague-Dawley, male; 400 pl, 1.0 million viable cells/ml for compounds 1-8, 11-12 and 23-26 or 100 μl, 0.1 million viable cells/ml for compounds 9-10 and 13-14) for different time points (0, 10, 20, 40 or 60 min) at 37° C. The cell density and viability were determined by trypan blue exclusion method. The incubation was terminated by acetonitrile. The collected samples were centrifuged for 20 min at 2272×g and analyzed. The samples were analyzed is by UHPLC/PDA with high resolution mass spectrometry (QE-Orbitrap-MS on DDI mode) (compounds 1-8, 11-12 and 23-26) or HHPLC-ToF mass spectrometry (for compounds 9-and 13-14) to monitor disappearance of the compound. Verapramil 1 μM was used as a disappearance rate control. The analytical method was optimized by using the parent compounds for optimum chromatographic properties (peak shape and retention) and mass spectrometric ionization. The Ion chromatograms were extracted from the total ion chromatograms using calculated monoisotopic accurate masses with 5 mDa window. Disappearance was based on LC/MS peak areas, marking 0 min as 100%. The first-order rate constants k (min-1) of the metabolism were obtained from the slope of time versus logarithm (% of remaining compound) plot using Excel software. The in vitro half-life (t1/2) of study compound is defined as: t1/2In2/k. Calculated half-life is based on compound disappearance in rat liver hepatocytes.

[3] = test system: human hepatocytes; experiment: In vitro metabolic stability in human hepatocytes; type: in vitro ADME; settings: 1 μM, 37° C., up to 60 min
Description: The linear or macrocyclic compounds 1-8, 11-14 and 23-26 (SEQ ID NOs: 1-8, 11-14 and 23-26) were incubated in concentration 1 μM with pooled cryopreserved human hepatocytes (mixed gender; 400 pl, 1.0 million viable cells/ml) for different time points (0, 20, 40 or 60 min) at 37° C. The cell density and viability were determined by trypan blue is exclusion method. The incubation was terminated by acetonitrile. The collected samples were centrifuged for 20 min at 2272×g and analyzed. The samples were analyzed by UPLC/PDA with high resolution mass spectrometry (QE-Orbitrap-MS on DDI mode) to monitor disappearance of the compound. Verapramil 1 μM was used as a disappearance rate control. The analytical method was optimized by using the parent compounds for optimum chromatographic properties (peak shape and retention) and mass spectrometric ionization. The Ion chromatograms were extracted from the total ion chromatograms using calculated monoisotopic accurate masses with 5 mDa window. Disappearance was based on LC/MS peak areas, marking 0 min as 100%. The first-order rate constants k (min-1) of the metabolism were obtained from the slope of time versus logarithm (% of remaining compound) plot using Excel software. The in vitro half-life (t1/2) of study compound is defined as: t1/2In2/k. Calculated half-life is based on compound disappearance in human liver hepatocytes.

[4] = test system: 3D in vitro model of blood-brain barrier; experiment: Permeation in a 3D in vitro model of blood-brain barrier; type: in vitro ADME, human endothelial cells, rat astrocytes and cortical neurons; settings: 500 nM, 2 h
Description: Due to the interest of developing CDNF- and MANF-derived peptides for treatment of CNS diseases with peripheral route of administration, and the fact that macrocyclization can improve cell-penetration and distribution properties of peptides, the ability of the compounds to pass the blood-brain barrier was tested in an established in vitro model of the blood-brain barrier. For this purpose, macrocyclic and linear compounds were incubated at 500 nM for 2 h in a two-compartment in vitro blood-brain barrier model (n=4) followed by sample collection is and LC-MS/MS analysis.
Primary culture of astrocytes. Rat astrocytes were prepared from a E15 embryos. Briefly, pregnant female rats (Wistar, Janvier Labs) of 15 days of gestation were deeply anesthetized in a (CO2 chamber) and then killed by cervical dislocation. Fetuses were collected and immediately placed in ice-cold L15 Leibovitz medium with a 2% penicillin (10,000 U/mL) and streptomycin (10 mg/mL) solution (PS) and 1% bovine serum albumin (BSA). Full brains were treated for 20 min at 37° C. with a trypsin- EDTA solution at a final concentration of 0.05% trypsin and 0.02% EDTA. Dissociated cells were cultured in DMEM 10% fetal calf serum. Purified astrocytes were used at passage 4 (P4).
Culture of human endothelial cells. A vial of HBMEC (Primary Human Brain Microvascular Endothelial Cells, ACBRI 376) was used at a specific passage 8 (P8).
Primary culture of cortical neurons. Rat cortical neurons were cultured as described by Callizot et al., 2013 with modification. Briefly, pregnant female rats (Wistar, Janvier Labs) of […] were deeply anesthetized in a CO2 chamber and then killed by cervical io dislocation. Fetuses were collected and immediately placed in ice-cold L15 Leibovitz medium with a 2% penicillin (10,000 U/mL) and streptomycin (10 mg/mL) solution (PS) and 1% bovine serum albumin (BSA). Cortices were treated for 20 min at 37° C. with a trypsin-EDTA solution at a final concentration of 0.05% trypsin and 0.02% EDTA. The dissociation was stopped by addition of Dulbecco's modified Eagle's medium (DMEM) with 4.5 g/L of glucose, containing is DNAse I grade II (final concentration 0.5 mg/m L) and 10% fetal calf serum (FCS). Cells were mechanically dissociated by three forced passages through the tip of a 10-m1 pipette. Cells were then centrifuged at 515×g for 10 min at 4° C. The pellet resuspended in a defined culture medium consisting of Neurobasal medium with a 2% solution of B27 supplement, 2 mmol/L of L-glutamine, 2% of PS solution, 10 ng/mL of brain-derived neurotrophic factor (BDNF). Viable cells were counted in a Neubauer cytometer, using the trypan blue exclusion test. The cortical neurons were seeded in the bottom of well pre-coated with poly-L-lysine at a density of 255,000 per well in 24-well plate with insert and cultured at 37° C. in an air (95%)-CO2 (5%) incubator. The culture medium was changed every other day.
Co-Culture of endothelial cells, astrocytes and primary cortical neurons. The procedure was performed as previously published (Xue et al., 2013 with modifications, Callizot et al., 2017). Briefly, on day 0, purified astrocytes (P4) were rapidly thawed in a water bath at 37° C. The cells were immediately put in DMEM containing 10% of FCS. Cell suspension was centrifuged at 515×g for 5 min at 4° C. and the pellets were suspended in DMEM F12 containing 10% of FCS. Cells were seeded in the outer side of the insert membrane (PET, 1 μm) at the density of 45,000 cells per insert and cultured at 37° C. in an air (95%)-CO2 (5%) incubator. Thirty-six (36) hours after the astrocytes seeding, HBMEC (P8) were rapidly thawed in a water bath at 37° C. and immediately put in DMEM containing 10% of FCS. Cell suspension was centrifuged at 515×g for 5 min at 4° C. and the pellets were suspended in EGM-2 bullet kit containing 5% of FCS, 1% of PS solution, 1.4 μM of Hydrocortisone, 5 μg/mL of acid ascorbic, 1% of lipid mixture, 10 mM of HEPES, 1 ng/mL of bFGF. […]

Compound: CC[C@H](C)[C@@H]1NC(=O)[C@H](CCCCN)NC(=O)[C@H](CCCCN)NC(=O)[C@H](CC(C)C)NC(=O)[C@H](CCC(=O)O)NC(=O)[C@H](CCCCN)NC(=O)[C@H](C(C)C)NC(=O)[C@H](CCCNC(=N)N)NC(=O)[C@H](CC(C)C)NC(=O)[C@H](CCCCN)NC(=O)[C@H](CCCCN)NC(=O)[C@H](CC(C)C)NC(=O)[C@H](CC(=O)O)NC(=O)[C@H](C(C)C)NC(=O)[C@H](CCC(=O)O)NC(=O)[C@H](C)NC(=O)[C@@H]2CSSC[C@H](NC(=O)[C@H]([C@@H](C)O)NC(=O)[C@H](CCC(=O)O)NC(=O)CNC(=O)[C@H](Cc3c[nH]c4ccccc34)NC(=O)[C@H](CC(=O)O)NC(=O)[C@H](CC(=O)O)NC(=O)[C@H](CC(C)C)NC1=O)C(=O)N[C@@H](CCCCN)C(=O)NCC(=O)N2 [Compound 4] (cyclo(AEVDLKKLRVKELKKILDDWGETCKGC); disulfide 24-27)
- stability in rat plasma as compared to linear counterpart [1]: improved stability
- stability in rat hepatocytes as compared to linear counterpart [2]: significantly improved stability
- stability in human hepatocytes as compared to linear counterpart [3]: significantly improved stability
- ability to pass through the in vitro blood-brain barrier as compared to linear counterpart [4]: improved ability to pass
